Reference: the kinase profiling compilation of Christmann-Franck et al. (2016)

Legend:
Test in all cases: KINOMEscan competition binding
Details in all cases: compound 10.0 µM
ICK (human) = ICK (human) (UniProt Q9UPZ9)
SIK3 (human) = SIK3 (human) (UniProt Q9Y2K2)
CDK4 CCND3 (human) = CDK4 CCND3 (human) (UniProt P11802+P30281)
CDKL5 (human) = CDKL5 (human) (UniProt O76039)
DYRK2 (human) = DYRK2 (human) (UniProt Q92630)
[1] = test system: KIT (human), P10721 [D816H]
MAK (human) = MAK (human) (UniProt P20794)
[2] = test system: KIT (human), P10721 [L576P]
[3] = test system: MET (human), P08581 [Y1235D]
GRK1 (human) = GRK1 (human) (UniProt Q15835)
DSTYK (human) = DSTYK (human) (UniProt Q6XUX3)
TBK1 (human) = TBK1 (human) (UniProt Q9UHD2)
[4] = test system: PIK3CA (human), P42336 [I800L]
CDK4 CCND1 (human) = CDK4 CCND1 (human) (UniProt P11802+P24385)
SGK3 (human) = SGK3 (human) (UniProt Q96BR1)
ERBB3 (human) = ERBB3 (human) (UniProt P21860)
YSK4 (human) = YSK4 (human) (UniProt Q56UN5)
SBK1 (human) = SBK1 (human) (UniProt Q52WX2)
[5] = test system: EGFR (human), P00533 [T790M/L858R]
HUNK (human) = HUNK (human) (UniProt P57058)
NIM1 (human) = NIM1 (human) (UniProt Q8IY84)
STK39 (human) = STK39 (human) (UniProt Q9UEW8)
IRAK4 (human) = IRAK4 (human) (UniProt Q9NWZ3)
[6] = test system: EGFR (human), P00533 [T790M]
CDK13 (human) = CDK13 (human) (UniProt Q14004)
PKN3 (M.tuberculosis) = PKN3 (M.tuberculosis) (UniProt Q6P5Z2)
HIPK4 (human) = HIPK4 (human) (UniProt Q8NE63)
MAP3K2 (human) = MAP3K2 (human) (UniProt Q9Y2U5)
[7] = test system: PIK3CA (human), P42336 [Q546K]
DCLK2 (human) = DCLK2 (human) (UniProt Q8N568)
CSNK1A1 (human) = CSNK1A1 (human) (UniProt P48729)
[8] = test system: PIK3CA (human), P42336 [H1047L]
MAP2K5 (human) = MAP2K5 (human) (UniProt Q13163)
MAP2K7 (human) = MAP2K7 (human) (UniProt O14733)
PRKCI (human) = PRKCI (human) (UniProt P41743)
PIP4K2C (human) = PIP4K2C (human) (UniProt Q8TBX8)
ACVR2B (human) = ACVR2B (human) (UniProt Q13705)
CDKL3 (human) = CDKL3 (human) (UniProt Q8IVW4)
PRKG2 (human) = PRKG2 (human) (UniProt Q13237)
GRK4 (human) = GRK4 (human) (UniProt P32298)
ABL1 (human) = ABL1 (human) (UniProt P00519)
[9] = test system: ABL1 (human), P00519 [F317I]

CDKL3 (human), sequence (Q8IVW4 whole entry, looked up): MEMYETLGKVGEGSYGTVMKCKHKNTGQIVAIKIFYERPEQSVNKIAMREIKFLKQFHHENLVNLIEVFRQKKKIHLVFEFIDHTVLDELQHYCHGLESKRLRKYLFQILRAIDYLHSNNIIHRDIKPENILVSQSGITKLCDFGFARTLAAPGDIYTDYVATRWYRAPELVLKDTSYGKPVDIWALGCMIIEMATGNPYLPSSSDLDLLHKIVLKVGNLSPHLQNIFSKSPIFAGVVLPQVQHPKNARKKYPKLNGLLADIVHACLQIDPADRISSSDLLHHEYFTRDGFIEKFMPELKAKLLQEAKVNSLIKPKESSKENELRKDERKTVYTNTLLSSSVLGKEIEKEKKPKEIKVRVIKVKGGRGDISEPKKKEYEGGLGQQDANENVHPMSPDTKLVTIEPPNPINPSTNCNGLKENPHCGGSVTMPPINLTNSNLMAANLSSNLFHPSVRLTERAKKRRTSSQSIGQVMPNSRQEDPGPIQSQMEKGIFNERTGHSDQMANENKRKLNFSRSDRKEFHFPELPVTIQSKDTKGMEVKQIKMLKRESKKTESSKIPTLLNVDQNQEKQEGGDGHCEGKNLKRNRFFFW
MAP3K2 (human), sequence (Q9Y2U5 whole entry, looked up): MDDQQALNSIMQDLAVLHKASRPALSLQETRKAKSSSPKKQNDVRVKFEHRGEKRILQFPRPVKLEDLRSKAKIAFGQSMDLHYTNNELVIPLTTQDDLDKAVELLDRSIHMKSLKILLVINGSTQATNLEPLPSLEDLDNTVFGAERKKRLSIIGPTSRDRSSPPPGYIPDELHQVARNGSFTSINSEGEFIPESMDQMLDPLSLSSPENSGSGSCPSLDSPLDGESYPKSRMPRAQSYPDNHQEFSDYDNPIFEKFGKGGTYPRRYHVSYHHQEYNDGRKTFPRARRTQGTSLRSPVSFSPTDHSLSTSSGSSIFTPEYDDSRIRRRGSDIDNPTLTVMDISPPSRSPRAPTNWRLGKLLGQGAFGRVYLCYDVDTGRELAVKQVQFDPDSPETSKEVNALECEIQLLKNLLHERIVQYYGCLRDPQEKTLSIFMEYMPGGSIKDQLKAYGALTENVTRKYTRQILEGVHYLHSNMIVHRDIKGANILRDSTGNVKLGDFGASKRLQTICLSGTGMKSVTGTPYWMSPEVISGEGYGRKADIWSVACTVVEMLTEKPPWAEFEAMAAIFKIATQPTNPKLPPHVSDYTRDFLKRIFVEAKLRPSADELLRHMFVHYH
DSTYK (human), sequence (Q6XUX3 whole entry, looked up): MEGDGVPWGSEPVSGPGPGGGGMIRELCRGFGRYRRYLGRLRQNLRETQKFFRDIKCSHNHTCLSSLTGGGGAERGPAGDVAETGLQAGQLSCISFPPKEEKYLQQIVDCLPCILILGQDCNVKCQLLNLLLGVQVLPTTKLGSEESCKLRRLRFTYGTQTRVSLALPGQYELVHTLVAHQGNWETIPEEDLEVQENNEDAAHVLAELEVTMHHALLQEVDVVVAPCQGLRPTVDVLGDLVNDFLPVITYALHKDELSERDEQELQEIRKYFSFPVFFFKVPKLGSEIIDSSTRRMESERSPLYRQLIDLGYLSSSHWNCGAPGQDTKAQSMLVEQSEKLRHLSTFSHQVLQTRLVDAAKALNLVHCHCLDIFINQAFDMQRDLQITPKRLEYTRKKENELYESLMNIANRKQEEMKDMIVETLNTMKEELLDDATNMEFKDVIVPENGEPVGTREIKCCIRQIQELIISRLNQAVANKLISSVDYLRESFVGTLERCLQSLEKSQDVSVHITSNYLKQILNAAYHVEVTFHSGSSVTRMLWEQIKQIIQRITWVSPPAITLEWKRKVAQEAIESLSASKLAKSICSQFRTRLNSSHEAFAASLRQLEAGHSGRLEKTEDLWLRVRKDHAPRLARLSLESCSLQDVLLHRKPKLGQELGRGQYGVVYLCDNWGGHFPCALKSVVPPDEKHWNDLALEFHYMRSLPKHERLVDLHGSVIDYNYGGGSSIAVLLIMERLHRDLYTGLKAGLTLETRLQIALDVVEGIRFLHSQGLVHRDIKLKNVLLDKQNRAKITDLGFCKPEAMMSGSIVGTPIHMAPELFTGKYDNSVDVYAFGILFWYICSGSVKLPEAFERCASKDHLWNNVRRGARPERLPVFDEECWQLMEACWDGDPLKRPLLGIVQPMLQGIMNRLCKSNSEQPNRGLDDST
IRAK4 (human), sequence (Q9NWZ3 whole entry, looked up): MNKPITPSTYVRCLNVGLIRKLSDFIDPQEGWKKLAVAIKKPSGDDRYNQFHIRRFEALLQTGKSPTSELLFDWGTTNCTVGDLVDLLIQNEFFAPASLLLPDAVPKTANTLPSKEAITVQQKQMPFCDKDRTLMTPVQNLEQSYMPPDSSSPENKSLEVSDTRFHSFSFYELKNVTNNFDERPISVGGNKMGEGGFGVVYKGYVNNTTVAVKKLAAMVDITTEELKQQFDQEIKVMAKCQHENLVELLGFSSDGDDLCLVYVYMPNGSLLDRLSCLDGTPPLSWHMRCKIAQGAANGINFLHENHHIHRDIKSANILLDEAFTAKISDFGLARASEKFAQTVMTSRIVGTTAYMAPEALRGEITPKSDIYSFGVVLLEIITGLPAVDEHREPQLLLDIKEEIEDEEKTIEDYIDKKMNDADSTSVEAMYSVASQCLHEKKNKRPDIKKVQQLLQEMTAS
PIK3CA (human), P42336 [H1047L], sequence (P42336 whole entry H1047L, looked up): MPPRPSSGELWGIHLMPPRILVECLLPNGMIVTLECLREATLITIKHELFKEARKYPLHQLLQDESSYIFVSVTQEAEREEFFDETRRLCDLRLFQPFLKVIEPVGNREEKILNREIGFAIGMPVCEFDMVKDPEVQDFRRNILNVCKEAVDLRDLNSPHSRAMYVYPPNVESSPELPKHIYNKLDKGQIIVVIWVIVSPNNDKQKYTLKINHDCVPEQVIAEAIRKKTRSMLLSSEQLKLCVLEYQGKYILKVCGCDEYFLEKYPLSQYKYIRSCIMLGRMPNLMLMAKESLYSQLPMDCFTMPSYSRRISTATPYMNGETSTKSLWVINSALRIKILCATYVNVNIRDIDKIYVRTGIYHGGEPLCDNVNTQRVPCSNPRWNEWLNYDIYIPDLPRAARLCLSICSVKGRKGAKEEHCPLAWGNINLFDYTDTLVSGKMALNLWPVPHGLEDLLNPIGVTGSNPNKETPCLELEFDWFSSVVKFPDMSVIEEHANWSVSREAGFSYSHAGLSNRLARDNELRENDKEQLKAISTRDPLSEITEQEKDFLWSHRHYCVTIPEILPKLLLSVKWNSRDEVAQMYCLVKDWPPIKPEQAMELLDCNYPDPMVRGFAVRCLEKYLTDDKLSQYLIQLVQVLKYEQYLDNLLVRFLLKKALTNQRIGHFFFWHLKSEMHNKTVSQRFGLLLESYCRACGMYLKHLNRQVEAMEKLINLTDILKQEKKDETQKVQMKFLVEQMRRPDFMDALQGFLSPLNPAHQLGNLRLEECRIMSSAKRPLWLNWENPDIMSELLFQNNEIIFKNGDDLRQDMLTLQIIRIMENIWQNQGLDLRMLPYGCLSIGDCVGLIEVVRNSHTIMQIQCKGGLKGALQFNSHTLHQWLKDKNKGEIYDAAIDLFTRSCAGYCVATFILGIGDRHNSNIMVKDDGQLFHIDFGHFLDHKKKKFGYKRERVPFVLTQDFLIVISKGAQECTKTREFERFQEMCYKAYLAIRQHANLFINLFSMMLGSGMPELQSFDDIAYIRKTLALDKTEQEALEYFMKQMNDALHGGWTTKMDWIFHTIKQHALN
PIP4K2C (human), sequence (Q8TBX8 whole entry, looked up): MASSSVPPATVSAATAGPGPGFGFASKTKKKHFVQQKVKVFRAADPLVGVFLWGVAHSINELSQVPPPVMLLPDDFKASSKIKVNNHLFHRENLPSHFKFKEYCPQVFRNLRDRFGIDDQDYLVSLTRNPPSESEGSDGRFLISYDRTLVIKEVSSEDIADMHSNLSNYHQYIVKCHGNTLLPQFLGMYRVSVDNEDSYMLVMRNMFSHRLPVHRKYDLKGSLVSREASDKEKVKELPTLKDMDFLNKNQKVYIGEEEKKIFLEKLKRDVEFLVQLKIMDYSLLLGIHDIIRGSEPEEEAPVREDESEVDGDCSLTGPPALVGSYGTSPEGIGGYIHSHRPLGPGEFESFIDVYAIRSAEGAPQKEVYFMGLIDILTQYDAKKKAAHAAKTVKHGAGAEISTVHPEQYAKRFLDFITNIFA
GRK4 (human), sequence (P32298 whole entry, looked up): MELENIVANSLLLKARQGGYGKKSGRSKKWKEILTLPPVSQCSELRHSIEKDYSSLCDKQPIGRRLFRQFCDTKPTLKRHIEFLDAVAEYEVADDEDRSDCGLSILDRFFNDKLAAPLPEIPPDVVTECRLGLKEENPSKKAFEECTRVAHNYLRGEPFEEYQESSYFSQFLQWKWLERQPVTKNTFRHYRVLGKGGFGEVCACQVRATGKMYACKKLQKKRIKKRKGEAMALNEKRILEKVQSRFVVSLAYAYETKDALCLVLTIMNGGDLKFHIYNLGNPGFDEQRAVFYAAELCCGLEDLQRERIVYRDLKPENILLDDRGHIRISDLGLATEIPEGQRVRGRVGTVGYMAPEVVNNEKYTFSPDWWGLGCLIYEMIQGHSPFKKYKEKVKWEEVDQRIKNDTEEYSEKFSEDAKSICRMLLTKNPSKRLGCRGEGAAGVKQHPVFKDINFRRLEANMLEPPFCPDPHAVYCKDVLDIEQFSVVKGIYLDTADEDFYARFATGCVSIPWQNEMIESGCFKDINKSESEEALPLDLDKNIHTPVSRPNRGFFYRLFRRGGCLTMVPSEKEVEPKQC
PIK3CA (human), P42336 [I800L], sequence (P42336 whole entry I800L, looked up): as the sequence (P42336 whole entry H1047L, looked up) above, with I800L, L1047H counted along it
PIK3CA (human), P42336 [Q546K], sequence (P42336 whole entry Q546K, looked up): as the sequence (P42336 whole entry H1047L, looked up) above, with Q546K, L1047H counted along it

Compound `CCN1CCN(Cc2ccc(NC(=O)c3ccc(C)c(/C=C/c4cnc(Nc5cc(N6CCNCC6)nc(C)n5)cn4)c3)cc2C(F)(F)F)CC1` has a kinase still bound, per cent of control (ICK (human)) of 71%, a kinase still bound, per cent of control (SIK3 (human)) of 100% and a kinase still bound, per cent of control (CDK4 CCND3 (human)) of 64%. It also gave a kinase still bound, per cent of control (CDKL5 (human)) of 13%, a kinase still bound, per cent of control (DYRK2 (human)) of 74% and a kinase still bound, per cent of control [1] of 20%. The kinase still bound, per cent of control (MAK (human)) was 49%, the kinase still bound, per cent of control [2] was 0.2% and the kinase still bound, per cent of control [3] was 93%. For the same compound, the kinase still bound, per cent of control (GRK1 (human)) was 100%, the kinase still bound, per cent of control (DSTYK (human)) was 69% and the kinase still bound, per cent of control (TBK1 (human)) was 96%. For the same compound, the kinase still bound, per cent of control [4] was 94%, the kinase still bound, per cent of control (CDK4 CCND1 (human)) was 100% and the kinase still bound, per cent of control (SGK3 (human)) was 80%. It also gave a kinase still bound, per cent of control (ERBB3 (human)) of 100%, a kinase still bound, per cent of control (YSK4 (human)) of 0% and a kinase still bound, per cent of control (SBK1 (human)) of 82%. The kinase still bound, per cent of control [5] was 65%, the kinase still bound, per cent of control (HUNK (human)) was 93% and the kinase still bound, per cent of control (NIM1 (human)) was 100%. The kinase still bound, per cent of control (STK39 (human)) was 100%, the kinase still bound, per cent of control (IRAK4 (human)) was 77% and the kinase still bound, per cent of control [6] was 9.4%. The kinase still bound, per cent of control (CDK13 (human)) was 46%, the kinase still bound, per cent of control (PKN3 (M.tuberculosis)) was 100% and the kinase still bound, per cent of control (HIPK4 (human)) was 15%. It also gave a kinase still bound, per cent of control (MAP3K2 (human)) of 0.4%, a kinase still bound, per cent of control [7] of 100% and a kinase still bound, per cent of control (DCLK2 (human)) of 100%. It also gave a kinase still bound, per cent of control (CSNK1A1 (human)) of 14%, a kinase still bound, per cent of control [8] of 97% and a kinase still bound, per cent of control (MAP2K5 (human)) of 0.1%. The kinase still bound, per cent of control (MAP2K7 (human)) was 30%, the kinase still bound, per cent of control (PRKCI (human)) was 74% and the kinase still bound, per cent of control (PIP4K2C (human)) was 61%. For the same compound, the kinase still bound, per cent of control (ACVR2B (human)) was 92%, the kinase still bound, per cent of control (CDKL3 (human)) was 0.55% and the kinase still bound, per cent of control (PRKG2 (human)) was 88%. It also gave a kinase still bound, per cent of control (GRK4 (human)) of 80%.
Work on `COc1cc(N2CCC(N3CCN(C)CC3)CC2)ccc1Nc1ncc(Cl)c(Nc2ccccc2S(=O)(=O)C(C)C)n1` yielded a kinase still bound, per cent of control (ABL1 (human)) of 7.3% and a kinase still bound, per cent of control [9] of 0.45%.
`CCOc1cc(N2CCC(N3CCCCC3)CC2)ccc1Nc1nc(Nc2ccccc2S(=O)(=O)C(C)C)c2cn[nH]c2n1` gave a kinase still bound, per cent of control (ICK (human)) of 89%, a kinase still bound, per cent of control (SIK3 (human)) of 100% and a kinase still bound, per cent of control (CDK4 CCND3 (human)) of 100%. For the same compound, the kinase still bound, per cent of control (CDKL5 (human)) was 100%, the kinase still bound, per cent of control (DYRK2 (human)) was 90% and the kinase still bound, per cent of control [1] was 73%. The kinase still bound, per cent of control (MAK (human)) was 100%, the kinase still bound, per cent of control [2] was 67% and the kinase still bound, per cent of control [3] was 100%. It also gave a kinase still bound, per cent of control (GRK1 (human)) of 98%, a kinase still bound, per cent of control (DSTYK (human)) of 2.8% and a kinase still bound, per cent of control (TBK1 (human)) of 100%. The kinase still bound, per cent of control [4] was 100%, the kinase still bound, per cent of control (CDK4 CCND1 (human)) was 82% and the kinase still bound, per cent of control (SGK3 (human)) was 92%. For the same compound, the kinase still bound, per cent of control (ERBB3 (human)) was 55%, the kinase still bound, per cent of control (YSK4 (human)) was 100% and the kinase still bound, per cent of control (SBK1 (human)) was 57%. The kinase still bound, per cent of control [5] was 25%, the kinase still bound, per cent of control (HUNK (human)) was 100% and the kinase still bound, per cent of control (NIM1 (human)) was 100%. The kinase still bound, per cent of control (STK39 (human)) was 37%, the kinase still bound, per cent of control (IRAK4 (human)) was 87% and the kinase still bound, per cent of control [6] was 0.25%. It also gave a kinase still bound, per cent of control (CDK13 (human)) of 100%, a kinase still bound, per cent of control (PKN3 (M.tuberculosis)) of 75% and a kinase still bound, per cent of control (HIPK4 (human)) of 44%. For the same compound, the kinase still bound, per cent of control (MAP3K2 (human)) was 28%, the kinase still bound, per cent of control [7] was 100% and the kinase still bound, per cent of control (DCLK2 (human)) was 19%. The kinase still bound, per cent of control (CSNK1A1 (human)) was 55%, the kinase still bound, per cent of control [8] was 100% and the kinase still bound, per cent of control (MAP2K5 (human)) was 55%. It also gave a kinase still bound, per cent of control (MAP2K7 (human)) of 78%, a kinase still bound, per cent of control (PRKCI (human)) of 100% and a kinase still bound, per cent of control (PIP4K2C (human)) of 100%. The kinase still bound, per cent of control (ACVR2B (human)) was 100%, the kinase still bound, per cent of control (CDKL3 (human)) was 100% and the kinase still bound, per cent of control (PRKG2 (human)) was 100%. It also gave a kinase still bound, per cent of control (GRK4 (human)) of 92%.
`CCN1CCN(Cc2ccc(NC(=O)c3ccc(C)c(Oc4ccnc5[nH]ccc45)c3)cc2C(F)(F)F)CC1` was tested, and the kinase still bound, per cent of control (ABL1 (human)) was 0.1% and the kinase still bound, per cent of control [9] was 0.05%.
